Measured values published in US9993538B2, “Peptide vaccine therapy for treatment of FRα-expressing tumors” (Galena Biopharma, Inc., priority 2015, dated 2018).
No end group written: not given here.

Columns and labels:
[1] = Booster study: local reactions (LR) 48-72 hours after each booster, safety; type: in vivo, human; settings: 500 mcg peptide + 250 mcg GM-CSF booster
Source text: Booster inoculations of peptide vaccines may improve disease-free survival (DFS) (e.g., U.S. Pat. No. 8,222,214), but repeated boosting can theoretically lead to overstimulation and loss of vaccine-induced T cells. Therefore, to assess the use of the attenuated E39′ peptide as a booster, E39-vaccinated patients described in Example 1 were randomized to receive either E39 or E39′ as a booster to determine the effect on long-term E39-specific immunity. Patients in the VG received six intradermal E39 injections as described in Example 1 as a primary vaccination schedule (PVS). […]
Local reactions (LR) were recorded 48-72 hours after each booster. Immune response was determined by measurement of E39 specific CTL levels using a Dextramer reagents in accordance with the manufacturer's instructions (Immudex Limited, Copenhagen, Denmark) as previously described (e.g., Tario et al. Cytometry B Clin. Cytom. 2015; 88B:6-20; Baba J. Transl Med. 2010; 8:84), at R0 (baseline pre-vaccination), RC1(1 month after completion of PVS), RC6 (6 months after completion of PVS and before booster), RC7 (1 month after booster) and RC12 (6 months after booster and 12 months after completion of PVS). Demographic, safety, immunological, and DFS data were collected and evaluated.

[2] = parameters: species or system human; settings: in vivo
Source text: Eligible patients were identified with endometrial, ovarian, fallopian tube or peritoneal cancer and were disease-free after standard of care therapies. Patients were surgically or naturally post-menopausal. Exclusion criteria included patients currently receiving immunosuppressive therapy to include chemotherapy, steroids or methotrexate, poor health (ECOG […]), evidence of end-organ dysfunction, pregnancy, breast feeding, history of autoimmune disease, and involvement in other experimental protocols (except with permission of the principal investigator of the other study). […]
The E39 peptide (FBP 191-199, EIWTHSYKV) was produced commercially by an FDA-compliant production facility for patient use. […] This dose (250 mcg) of GM-CSF has been previously determined to be a safe and effective dose, based on our prior work with NeuVax^6. […]
The phase I portion of this trial consisted of dose escalation to determine a safe and effective dose of the E39 peptide. […] Prior to the fourth inoculation, each patient was assessed for liver, renal, and hematopoietic dysfunction. […]
Standard local and systemic toxicities were collected and graded per the National Cancer Institute Common Terminology Criteria for Adverse Events, v4.03 toxicity scale. […] Systemic toxicity and inoculation site local reactions were also determined after 48-72 hours.

[3] = tested on: tumor-associated lymphocyte (TAL); settings: cited from earlier work

EIWTFSTKV [E39′, EIWTFSTKV]
safety of booster [1]: safe

EIWTHSYKV [E39, EIWTHSYKV]
patients experiencing grade 3 toxicity [2]: 1 patient

E41: FRα-derived immunogenic peptide E41 (FRα 245-253) (LLSLALMLL; UniProt P15328 245-253, looked up, fragment)
effect on TAL proliferation and anti-tumor function [3]: capable of enhancing tumor-associated lymphocyte (TAL) proliferation and anti-tumor function
